According to patent US4241056A, “Penicillins and salts thereof” (Boehringer Ingelheim GmbH, priority 1978, dated 1980):
Values after ≈ are worked out from the molar mass of the structure shown. Like-named read-outs stand apart in the source and are kept apart here.

Columns and labels:
[1] = tested on: pseudomonas aeruginosa hamburgensis; experiment: MIC, serial dilution test in the microtiter system; assay type: cell-based; settings: 18 h, pseud. aerug. hamb., 37° C., 18-20 hours
Procedure: (§1) The tests were performed according to the method of the serial dilution test in the microtiter system. The effect of the substances on bacteriostasis was examined in a fluid medium. The activity on bacteriostatis was examined at the following concentrations:
(§2) 10 gm of peptone, 8 gm of meat extract-oxoid, 3 gm of sodium chloride, 2 gm of sec. sodium phosphate were diluted with distilled water to 1000 ml (pH 7.2-7.4). Only in the test against streptococci 1% of glucose was added. The age of the primary cultures was about 20 hours. The standardizations of the pathogen suspension was effected by using a photometer according to "Eppendorf" (test tube diameter 14 mm, filter 546 nm) with the aid of the turbidity of a comparison suspension consisting of barium sulfate, this suspension being prepared by addition of 3.0 ml of 1% barium chloride solution to 97 ml of 1% sulfuric acid. After the standardization, streptococcus aronson were further diluted to a concentration of 1:15 and the other germs to a concentration of 1:1500 by menas of a sodium chloride solution.
(§3) 16 mg of the test substance were put into a 10 ml measuring flask and filled up to the mark with the solvent. The further dilution series was standardized with distilled water or the respective solvent.
(§4) The cavities of the microtiter plates were filled with 0.2 ml of nutrient medium. Then, 0.01 ml of the corresponding test substance dilution was added and inoculated with 0.01 ml of the standardized suspension. The bacteria were incubated at 37° C. for 18-20 hours. Control tests merely using the solvent were carried out simultaneously.
(§5) The measurement was carried out macroscopically to determine the minimal inhibitory (threshold) concentration, i.e. the lowest still bacteriostatically effective concentration.
(§6) Staphylococcus aureus SG 511, streptococcus aronson, streptococcus faecalis ATCC 10541, escherichia coli ATCC 9637, 11 775 and escherichia coli 12593/74 (β-lactamase carrier), pseudomonas aeruginosa hamburgensis and ATCC 10145, serratia marcescens ATCC 13 880, klebsiella pneumoniae ATCC 10 031 and 272 and proteus mirabilis hamburgensis.

[2] = tested on: pseudomonas aeruginosa ATCC 10145; experiment: MIC, serial dilution test in the microtiter system; assay type: cell-based; settings: ATCC10145, 18 h, pseud. aerug. ATCC 10145, 37° C., 18-20 hours
Procedure: as §1, §2, §3, §4, §5, §6

[3] = tested on: proteus mirabilis hamburgensis; experiment: MIC, serial dilution test in the microtiter system; assay type: cell-based; settings: 18 h, prot. mirabilis, 37° C., 18-20 hours
Procedure: as §1, §2, §3, §4, §5, §6

[4] = tested on: klebsiella pneumoniae 272; experiment: MIC, serial dilution test in the microtiter system; assay type: cell-based; settings: 18 h, klebs pneum. 272, 37° C., 18-20 hours
Procedure: as §1, §2, §3, §4, §5, §6

[5] = tested on: streptococcus faecalis ATCC 10541; experiment: MIC, serial dilution test in the microtiter system; assay type: cell-based; settings: Enterococcus faecalis, ATCC10541, 18 h; strept. faecal.; 37° C., 18-20 hours
Procedure: as §1, §2, §3, §4, §5, §6

[6] = tested on: Staphylococcus aureus SG 511; experiment: MIC, serial dilution test in the microtiter system; assay type: cell-based; settings: SG511, 18 h, Staph. Aureus SG 511, 37° C., 18-20 hours
Procedure: as §1, §2, §3, §4, §5, §6

[7] = tested on: klebsiella pneumoniae ATCC 10 031; experiment: MIC, serial dilution test in the microtiter system; assay type: cell-based; settings: 18 h, klebs pneum ATCC 10031, 37° C., 18-20 hours
Procedure: as §1, §2, §3, §4, §5, §6

[8] = tested on: serratia marcescens ATCC 13 880; experiment: MIC, serial dilution test in the microtiter system; assay type: cell-based; settings: ATCC13, 18 h, serrat marcesc., 37° C., 18-20 hours
Procedure: as §1, §2, §3, §4, §5, §6

streptococcus aronson = experiment: MIC, serial dilution test in the microtiter system; assay type: cell-based; settings: 18 h, strept. aronson, 1% glucose added, 37° C., 18-20 hours
Procedure: as §1, §2, §3, §4, §5, §6

[9] = tested on: escherichia coli ATCC 11775; experiment: MIC, serial dilution test in the microtiter system; assay type: cell-based; settings: ATCC11775, 18 h, E. coli ATCC 11775, 37° C., 18-20 hours
Procedure: as §1, §2, §3, §4, §5, §6

[10] = tested on: escherichia coli ATCC 9637; experiment: MIC, serial dilution test in the microtiter system; assay type: cell-based; settings: ATCC9637, 18 h, E. coli ATCC 9637, 37° C., 18-20 hours
Procedure: as §1, §2, §3, §4, §5, §6

[11] = tested on: escherichia coli 12593/74 (β-lactamase carrier); experiment: MIC, serial dilution test in the microtiter system; assay type: cell-based; settings: 18 h, E. coli 12593/74 (β-lactamase carrier), 37° C., 18-20 hours
Procedure: as §1, §2, §3, §4, §5, §6

E. coli ATCC 11775 [12] = experiment: In vivo activity against experimental infection in mice; parameters: species or system mouse (NMRI); settings: Escherichia coli, 168 h, 7 days observation, read-out: ED50 (dose at which 50% of the animals survived)
Procedure: (§7) A number of compounds of this invention were tested in vivo in mice against experimental infections. Bacteria E. coli ATCC 11775 and pseudomonas aeruginosa walter were used as pathogens. An intraperitoneal infection with 0.2 ml of a 5% mucin suspension of the bacteria was induced. This corresponds to about 2×10^6 germs E. coli and 8×10^5 germs pseudomonas/mouse. Female NMRI mice were divided into groups of 10 animals each, two control groups remained untreated, the remaining groups were treated with different doses of the respective penicillins for the determination of the ED50 (dose at which 50% of the animals survived). The groups with the E. coli infection were treated with the substance 3 times on the first day (1, 4 and 7 hours post-infectionem) and for 2 days thereafter twice a day. The groups with the pseudomonas infection were treated with the substance applied 6 times on the first day (1, 3, 6, 9, 12, and 15 hours post-infectionem) and for 2 days thereafter twice a day. The observation time was in both cases 7 days.

[13] = tested on: pseudomonas aeruginosa walter; experiment: as above; parameters: species or system mouse (NMRI); settings: sc, 168 h, subcutaneous, 7 days observation, read-out: ED50 (dose at which 50% of the animals survived)
Procedure: as §7

[14] = Serum (blood) level in rats; assay type: in vivo; settings: rat, average from 3 rats; for concentration at 0.5 h: 30 min.; for concentration at 1 h: 60 min.; for concentration at 2 h: 120 min.
Procedure: For the determination of the serum level in rats, typical representatives of the penicillins according to the invention were administered at a dosage of 10 mg/kg subcutaneously or 100 mg/kg per os to groups of 3 female FW 49 rats (weight 100 to 130 gm) each. Blood tests taken from the heart were worked up, and the obtained sera were tested by the cylinder test-agar diffusion method on plates with sarcina lutea ATCC 15957. The samples were compared with standard curves.

E. coli ATCC 11775 [15] = experiment: Influence of the size of the inoculum on the MIC-values; assay type: cell-based; settings: Escherichia coli
Procedure: (§8) For the penicillins C and H, which are typical representatives for this invention, the influence of the size of the inoculum on the MIC-values against ps. aerug. hamburg. and E. coli ATCC 11775 in the microtiter system was determined. Thereby 3 different sizes of inoculum (3.3×10^6, 3.3×10^4 and 3.3×10^2 in E. coli and 4.7×10^6, 4.7×10^4 and 4.7×10^2 in pseudomonas) were used. The reference system was again penicillin Q.

pseud. aerug. hamburg. = experiment: as above; assay type: cell-based; settings: Pseudomonas aeruginosa
Procedure: as §8

Pseudomonas = settings: in vivo as well as in vitro; cited from earlier work
[16] = ATCC11775, inoculum 3.3 × 10^2 germs/ml
[17] = ATCC11775, inoculum 3.3 × 10^4 germs/ml
[18] = ATCC11775, inoculum 3.3 × 10^6 germs/ml

Row | SMILES | MIC [1] [µg/mL] | MIC [2] [µg/mL] | MIC [3] [µg/mL] | MIC [4] [µg/mL] | MIC [5] [µg/mL] | MIC [6] [µg/mL] | MIC [7] [µg/mL] | MIC [8] [µg/mL] | MIC (streptococcus aronson) [µg/mL] | MIC [9] [µg/mL] | MIC [10] [µg/mL] | MIC [11] [µg/mL] | ED50 (E. coli ATCC 11775 [12]; ATCC11775, po, peroral) [mg/kg] | ED50 (E. coli ATCC 11775 [12]; ATCC11775, sc, subcutaneous) [mg/kg] | ED50 [13] [mg/kg] | concentration at 0.5 h ([14]; oral 100 mg/kg) [ng/mL] | concentration at 1 h ([14]; oral 100 mg/kg) [ng/mL] | concentration at 2 h ([14]; oral 100 mg/kg) [ng/mL] | concentration at 0.5 h ([14]; sc, subcutaneous 10 mg/kg) [ng/mL] | concentration at 1 h ([14]; sc, subcutaneous 10 mg/kg) [ng/mL] | further results
1 | CC1(C)S[C@@H]2[C@H](NC(=O)[C@H](NC(=O)Nc3cnc(C4CC4)nc3O)c3ccc(O)cc3)C(=O)N2[C@H]1C(=O)O [C, D-α-[3-(2-cyclopropyl-4-hydroxy-5-pyrimidyl)-ureido]-p-hdroxybenzyl-penicillin sodium] | 2.5 | 1.25 | 1.25 | 80 | 10 | 0.3 | 40 | 1.25 | 0.08 | 1.25 | 2.5 | 80 | 30 | 1.5 | 7 | 3300 | 4800 | 1000 | 5100 | 6800 | concentration at 2 h ([14]; sc, subcutaneous 10 mg/kg): 400 ng/mL; MIC (E. coli ATCC 11775 [15]; [16]): 2.5 µg/mL; MIC (E. coli ATCC 11775 [15]; [17]): 2.5 µg/mL; MIC (E. coli ATCC 11775 [15]; [18]): 2.5 µg/mL; MIC (pseud. aerug. hamburg.; inoculum 4.7 × 10^2 germs/ml): 2.5 µg/mL; MIC (pseud. aerug. hamburg.; inoculum 4.7 × 10^4 germs/ml): 5 µg/mL; MIC (pseud. aerug. hamburg.; inoculum 4.7 × 10^6 germs/ml): > 80 µg/mL
2 | CC1(C)S[C@@H]2[C@H](NC(=O)C(C(=O)O)c3ccccc3)C(=O)N2[C@H]1C(=O)O (stereo partly shown) [Carbenicillin] |  |  |  |  |  |  |  |  |  |  |  |  |  |  |  |  |  |  |  |  | antipseudomonal activity (Pseudomonas): only a poor activity
3 | CC1(C)S[C@@H]2[C@H](NC(=O)[C@H](NC(=O)Nc3cncnc3O)c3ccc(O)cc3)C(=O)N2[C@H]1C(=O)O [Compound A, D-α-[3-(4-hydroxy-5-pyrimidyl)-ureido]-p-hydroxybenzylpenicillin sodium] | 5 | 2.5 | 0.6 | 80 | 10 | 0.3 | 80 | 5 | 0.08 | 2.5 | 2.5 | > 80 | 50 | 6 | 50 | 9100 | 9600 | 2900 | 9300 | 8600 | concentration at 2 h ([14]; sc, subcutaneous 10 mg/kg): 400 ng/mL
4 | CC1(C)S[C@@H]2[C@H](NC(=O)[C@H](NC(=O)Nc3cnc(Nc4ccc(Cl)cc4)nc3O)c3ccc(O)cc3)C(=O)N2[C@H]1C(=O)O [H, D-α-[3-(2-p-chloroanilino-4-hydroxy-5-pyrimidyl)-ureido]-p-hydroxybenzyl-penicillin sodium] | 2.5 | 1.25 | 0.6 | 2.5 | 5 | 1.25 | 5 | 1.25 | 0.08 | 0.6 | 1.25 | 80 |  |  |  |  |  |  |  |  | MIC (E. coli ATCC 11775 [15]; [16]): 0.3 µg/mL; MIC (E. coli ATCC 11775 [15]; [17]): 0.6 µg/mL; MIC (E. coli ATCC 11775 [15]; [18]): 1 µg/mL; MIC (pseud. aerug. hamburg.; inoculum 4.7 × 10^2 germs/ml): 2.5 µg/mL; MIC (pseud. aerug. hamburg.; inoculum 4.7 × 10^4 germs/ml): 2.5 µg/mL; MIC (pseud. aerug. hamburg.; inoculum 4.7 × 10^6 germs/ml): > 80 µg/mL
5 | CC1(C)S[C@@H]2[C@H](NC(=O)[C@H](NC(=O)N3CCNC3=O)c3ccccc3)C(=O)N2[C@H]1C(=O)O [Q, reference compound] | 10 (≈ 21.7 µM) | 5 (≈ 10.8 µM) |  |  |  |  |  |  |  | 10 (≈ 21.7 µM) | 20 (≈ 43.3 µM) |  | 320 | 35 | 110 | 800 | 600 | 300 | 2800 | 3700 | concentration at 2 h ([14]; sc, subcutaneous 10 mg/kg): 400 ng/mL; MIC (E. coli ATCC 11775 [15]; [16]): 10 µg/mL (≈ 21.7 µM); MIC (E. coli ATCC 11775 [15]; [17]): 10 µg/mL (≈ 21.7 µM); MIC (E. coli ATCC 11775 [15]; [18]): 10 µg/mL (≈ 21.7 µM); MIC (pseud. aerug. hamburg.; inoculum 4.7 × 10^2 germs/ml): 5 µg/mL (≈ 10.8 µM); MIC (pseud. aerug. hamburg.; inoculum 4.7 × 10^4 germs/ml): 10 µg/mL (≈ 21.7 µM); MIC (pseud. aerug. hamburg.; inoculum 4.7 × 10^6 germs/ml): > 80 µg/mL
6 | CC1(C)S[C@@H]2[C@H](NC(=O)C(c3ccccc3)S(=O)(=O)O)C(=O)N2[C@H]1C(=O)O (stereo partly shown) [Sulbenicillin] |  |  |  |  |  |  |  |  |  |  |  |  |  |  |  |  |  |  |  |  | antipseudomonal activity (Pseudomonas): only a poor activity
7 | CC1(C)S[C@@H]2[C@H](NC(=O)[C@H](C(=O)O)c3ccsc3)C(=O)N2[C@H]1C(=O)O [Ticarcillin] |  |  |  |  |  |  |  |  |  |  |  |  |  |  |  |  |  |  |  |  | antipseudomonal activity (Pseudomonas): only a poor activity
